These results are taken from the supplement of paper PMC10307832.

Test in all cases: relative viability (nuclei count vs DMSO), 5 days (fraction); higher = more cells survive
Compound in assay [1]: CC1(COc2ccc3c(c2)ncn3-c2ccc3cccc(N4CCC(N)CC4)c3n2)COC1 [Crenolanib] + CC1(C)CCC(c2ccc(Cl)cc2)=C(CN2CCN(c3ccc(C(=O)NS(=O)(=O)c4ccc(N[C@H](CCN5CCOCC5)CSc5ccccc5)c(S(=O)(=O)C(F)(F)F)c4)cc3)CC2)C1 [Navitoclax] (partner 0.5 µM)
The method, boiled down:
(§1)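 Medians of duplicate plates are given as relative viability. That measure is the nuclei count in treated wells divided by the count in vehicle wells. Counts were taken on 4× images of lung cancer cell lines in 1536-well plates, 5 days after pin-tool dosing the day after seeding with one drug alone or a fixed anchor-drug dose plus five library-drug doses (not always all listed) in √10 steps.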

Compound in assay [2]: CC1(COc2ccc3c(c2)ncn3-c2ccc3cccc(N4CCC(N)CC4)c3n2)COC1 [Crenolanib] + CC(C)C[C@H](NC(=O)[C@H](Cc1ccccc1)NC(=O)c1cnccn1)B(O)O [Bortezomib] (partner 0.002 µM)
In short, it runs like this:
as §1

Compound in assay [3]: O=C1NC(=O)[C@@H](c2cn3c4c(cccc24)CCC3)[C@@H]1c1c[nH]c2ccccc12 [Tivantinib] + N=C(N)NC(=N)NCCc1ccccc1 [Phenformin] (partner 250 µM)
In short, it runs like this: as §1

Compound in assay [4]: CC1(COc2ccc3c(c2)ncn3-c2ccc3cccc(N4CCC(N)CC4)c3n2)COC1 [Crenolanib] + Nc1nc2[nH]cc(CCc3ccc(C(=O)N[C@@H](CCC(=O)O)C(=O)O)cc3)c2c(=O)[nH]1 [Pemetrexed] (partner 0.2 µM)
The method, boiled down:
as §1

As for NCI-H1299, the relative viability worked out at 1.04 in assay [1] (first compound 0.01 µM); 1.04 in assay [1] (first compound 0.03162 µM); 0.987 in assay [1] (first compound 0.1 µM); 1.08 in assay [1] (first compound 0.3162 µM); 1.06 in assay [1] (first compound 1 µM); 1.04 in assay [2] (first compound 0.01 µM). The relative viability was 1.02 in assay [2] (first compound 0.03162 µM), 0.968 in assay [2] (first compound 0.1 µM), 1.04 in assay [2] (first compound 0.3162 µM) and 1.03 in assay [2] (first compound 1 µM).

Regarding NCI-H1395, the relative viability turned out to be 1.13 in assay [1] (first compound 0.01 µM); 1.26 in assay [1] (first compound 0.03162 µM); 1.07 in assay [1] (first compound 0.1 µM); 1.18 in assay [1] (first compound 0.3162 µM); 1.15 in assay [1] (first compound 1 µM); 0.468 in assay [3] (first compound 0.01 µM). The relative viability in assay [3] (first compound 0.03162 µM) was 0.513; in assay [3] (first compound 0.1 µM), 0.45; in assay [3] (first compound 0.3162 µM) it was 0.437; in assay [4] (first compound 0.01 µM), 0.88; in assay [4] (first compound 0.03162 µM), 0.768; in assay [4] (first compound 0.1 µM) it was 0.924. Further, the relative viability was determined as 0.831 in assay [4] (first compound 0.3162 µM) and 0.864 in assay [4] (first compound 1 µM).

For NCI-H1563, the relative viability in assay [2] (first compound 0.01 µM) was determined as 0.926; in assay [2] (first compound 0.03162 µM) it was 0.901; in assay [2] (first compound 0.1 µM), 0.897; in assay [2] (first compound 0.3162 µM), 0.865; in assay [2] (first compound 1 µM) it was 0.829; in assay [3] (first compound 0.01 µM), 0.581. Moreover, the relative viability was found to be 0.636 in assay [3] (first compound 0.03162 µM); 0.631 in assay [3] (first compound 0.1 µM); 0.63 in assay [3] (first compound 0.3162 µM); 0.736 in assay [4] (first compound 0.01 µM); 0.679 in assay [4] (first compound 0.03162 µM); 0.711 in assay [4] (first compound 0.1 µM). Further, the relative viability in assay [4] (first compound 0.3162 µM) amounted to 0.759; in assay [4] (first compound 1 µM), 0.742.

On to NCI-H1623, for which the relative viability in assay [3] (first compound 0.01 µM) stood at 0.574; in assay [3] (first compound 0.03162 µM), 0.547; in assay [3] (first compound 0.1 µM), 0.49.

Turning to NCI-H1648, the relative viability in assay [4] (first compound 0.01 µM) was found to be 0.742; in assay [4] (first compound 0.1 µM), 0.821; in assay [4] (first compound 0.3162 µM), 0.699; in assay [4] (first compound 1 µM) it was 0.716.

For the cell line NCI-H1703, the relative viability turned out to be 1 in assay [1] (first compound 0.01 µM); 0.657 in assay [1] (first compound 0.03162 µM); 0.286 in assay [1] (first compound 0.1 µM); 0.254 in assay [1] (first compound 0.3162 µM); 0.198 in assay [1] (first compound 1 µM); 0.419 in assay [2] (first compound 0.01 µM). Besides, the relative viability in assay [2] (first compound 0.03162 µM) was determined as 0.231; in assay [2] (first compound 0.1 µM) it was 0.218; in assay [2] (first compound 0.3162 µM), 0.207; in assay [2] (first compound 1 µM), 0.181.

On to NCI-H1793, for which the relative viability in assay [1] (first compound 0.01 µM) was 0.441; in assay [1] (first compound 0.03162 µM), 0.362; in assay [1] (first compound 0.1 µM), 0.386; in assay [1] (first compound 0.3162 µM), 0.386; in assay [1] (first compound 1 µM), 0.511; in assay [3] (first compound 0.01 µM) it was 0.347. Moreover, the relative viability in assay [3] (first compound 0.03162 µM) was found to be 0.388; in assay [3] (first compound 0.1 µM), 0.371; in assay [3] (first compound 0.3162 µM), 0.213; in assay [4] (first compound 0.01 µM), 1.02; in assay [4] (first compound 0.03162 µM), 0.912; in assay [4] (first compound 0.1 µM), 0.835. For the same cell line, the relative viability in assay [4] (first compound 0.3162 µM) is 1.08; in assay [4] (first compound 1 µM), 0.993.

Regarding NCI-H1944, the relative viability in assay [1] (first compound 0.01 µM) came to 0.987; in assay [1] (first compound 0.03162 µM), 1.03; in assay [1] (first compound 0.1 µM), 1.04; in assay [1] (first compound 0.3162 µM), 1.13; in assay [1] (first compound 1 µM), 1.03; in assay [3] (first compound 0.01 µM), 0.189. Moreover, the relative viability in assay [3] (first compound 0.03162 µM) was 0.179; in assay [3] (first compound 0.1 µM) it was 0.192; in assay [3] (first compound 0.3162 µM), 0.228; in assay [4] (first compound 0.01 µM), 0.735; in assay [4] (first compound 0.03162 µM), 0.646; in assay [4] (first compound 0.1 µM), 0.562. The relative viability came to 0.837 in assay [4] (first compound 0.3162 µM) and 0.542 in assay [4] (first compound 1 µM).

NCI-H2170: the relative viability in assay [1] (first compound 0.01 µM) turned out to be 0.612; in assay [1] (first compound 0.03162 µM) it was 0.549; in assay [1] (first compound 0.1 µM) it was 0.65; in assay [1] (first compound 0.3162 µM), 0.665; in assay [1] (first compound 1 µM), 0.579; in assay [3] (first compound 0.01 µM), 0.429. Moreover, the relative viability in assay [3] (first compound 0.03162 µM) amounted to 0.437; in assay [3] (first compound 0.1 µM), 0.401; in assay [4] (first compound 0.01 µM), 0.366; in assay [4] (first compound 0.03162 µM), 0.266; in assay [4] (first compound 0.1 µM), 0.276; in assay [4] (first compound 0.3162 µM), 0.286. Besides, in assay [4] (first compound 1 µM), the relative viability was found to be 0.271.

Regarding NCI-H2342, the relative viability was 0.579 in assay [3] (first compound 0.01 µM); 0.671 in assay [3] (first compound 0.03162 µM); 0.568 in assay [3] (first compound 0.1 µM); 0.495 in assay [3] (first compound 0.3162 µM); 0.749 in assay [4] (first compound 0.01 µM); 0.72 in assay [4] (first compound 0.03162 µM). Moreover, the relative viability was found to be 0.691 in assay [4] (first compound 0.1 µM), 0.771 in assay [4] (first compound 0.3162 µM) and 0.754 in assay [4] (first compound 1 µM).

Regarding SK-MES-1, the relative viability in assay [1] (first compound 0.01 µM) was determined as 1.4; in assay [1] (first compound 0.03162 µM), 1.4; in assay [1] (first compound 0.1 µM), 1.25; in assay [1] (first compound 0.3162 µM) it was 1.45; in assay [1] (first compound 1 µM), 1.2; in assay [3] (first compound 0.01 µM) it was 0.676. Moreover, the relative viability came out at 0.672 in assay [3] (first compound 0.03162 µM); 0.619 in assay [3] (first compound 0.1 µM); 0.673 in assay [3] (first compound 0.3162 µM); 1.06 in assay [4] (first compound 0.01 µM); 0.964 in assay [4] (first compound 0.03162 µM); 0.886 in assay [4] (first compound 0.1 µM). For the same cell line, the relative viability worked out at 0.967 in assay [4] (first compound 0.3162 µM) and 0.929 in assay [4] (first compound 1 µM).

As to SW 900, the relative viability in assay [3] (first compound 0.01 µM) came to 0.693; in assay [3] (first compound 0.03162 µM) it was 0.527; in assay [3] (first compound 0.1 µM) it was 0.573; in assay [3] (first compound 0.3162 µM), 0.474; in assay [4] (first compound 0.01 µM), 0.502; in assay [4] (first compound 0.1 µM), 0.48. In addition, the relative viability in assay [4] (first compound 0.3162 µM) amounted to 0.509; in assay [4] (first compound 1 µM), 0.484.
